Assay results from PubChem BioAssay AID1845205 (Molecular Pharmacology Branch, DTP, NCI, 2023).

System: MPNST multicellular tumor spheroids, viability % test/control
Experiment: Anticancer human tumor MPNST cell line growth inhibition;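 further: spheroids exposed to agents for seven days after three days of growth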;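 on viability, T/C: luminescence signal used as surrogate for viable cell amount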
Details: for IC50: curve of first compound; for viability, T/C: stronger effect = lower value
How it was run: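 Complex tumor spheroids combined malignant cells with endothelial cells and mesenchymal stem cells. DNA-damaging drugs and DNA repair inhibitors were tested alone and in combination, at half-log dilutions down from clinical Cmax (top 10 microM if Cmax unknown), 0.25% DMSO final.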

[1] = second compound 30 pM, first compound 0.00949 µM
[2] = second compound 30 pM, first compound 0.03 µM
[3] = second compound 30 pM, first compound 0.0949 µM
[4] = second compound 30 pM, first compound 0.3 µM
[5] = second compound 30 pM, first compound 0.949 µM
[6] = second compound 30 pM, first compound 3 µM
[7] = second compound 94.9 pM, first compound 0.00949 µM
[8] = second compound 94.9 pM, first compound 0.03 µM
[9] = second compound 94.9 pM, first compound 0.0949 µM
[10] = second compound 94.9 pM, first compound 0.3 µM
[11] = second compound 94.9 pM, first compound 0.949 µM
[12] = second compound 94.9 pM, first compound 3 µM
[13] = second compound 0.0003 µM, first compound 0.00949 µM
[14] = second compound 0.0003 µM, first compound 0.03 µM
[15] = second compound 0.0003 µM, first compound 0.0949 µM
[16] = second compound 0.0003 µM, first compound 0.3 µM
[17] = second compound 0.0003 µM, first compound 0.949 µM
[18] = second compound 0.0003 µM, first compound 3 µM
[19] = second compound 0.000949 µM, first compound 0.00949 µM
[20] = second compound 0.000949 µM, first compound 0.03 µM
[21] = second compound 0.000949 µM, first compound 0.0949 µM
[22] = second compound 0.000949 µM, first compound 0.3 µM
[23] = second compound 0.000949 µM, first compound 0.949 µM
[24] = second compound 0.000949 µM, first compound 3 µM
[25] = second compound 0.003 µM, first compound 0.00949 µM
[26] = second compound 0.003 µM, first compound 0.03 µM
[27] = second compound 0.003 µM, first compound 0.0949 µM
[28] = second compound 0.003 µM, first compound 0.3 µM
[29] = second compound 0.003 µM, first compound 0.949 µM
[30] = second compound 0.003 µM, first compound 3 µM

| Compound | IC50 (second compound 30 pM) | IC50 (second compound 94.9 pM) | IC50 (second compound 0.0003 µM) | IC50 (second compound 0.000949 µM) | IC50 (second compound 0.003 µM) | viability, T/C [3] | viability, T/C [4] | viability, T/C [5] | viability, T/C [6] | viability, T/C [9] | viability, T/C [10] | viability, T/C [11] | viability, T/C [12] | viability, T/C [15] | viability, T/C [16] | viability, T/C [17] | viability, T/C [18] | viability, T/C [21] | viability, T/C [22] | viability, T/C [23] | other results |
| --- | --- | --- | --- | --- | --- | --- | --- | --- | --- | --- | --- | --- | --- | --- | --- | --- | --- | --- | --- | --- | --- |
| CNCc1ccc(-c2cc(-c3nc(-c4ccc(S(=O)(=O)C(C)C)cc4)cnc3N)on2)cc1 + COc1cc2c(cc1O)CCNC21CSC2c3c(OC(C)=O)c(C)c4c(c3C(COC1=O)N1C(O)C3Cc5cc(C)c(OC)c(O)c5C(C21)N3C)OCO4 | 283 nM | > 3000 nM | 96.6 nM | < 9.49 nM | < 9.49 nM | 63.5% | 54.8% | 47.2% | 45.9% | 70.4% | 55.6% | 49.7% | 53.6% | 50.1% | 42.4% | 46.3% | 46.8% | 38.5% | 36.2% | 46% | viability, T/C [1]: 83.5%; viability, T/C [2]: 105%; viability, T/C [7]: 79%; viability, T/C [8]: 74%; viability, T/C [13]: 68.1%; viability, T/C [14]: 70.8%; viability, T/C [19]: 39%; viability, T/C [20]: 39.5%; viability, T/C [24]: 48.6%; viability, T/C [25]: 6.71%; viability, T/C [26]: 17.8%; viability, T/C [27]: 18.7%; viability, T/C [28]: 8.25%; viability, T/C [29]: 12.3%; viability, T/C [30]: 8.15% |
| Cn1ncnc1[C@H]1c2n[nH]c(=O)c3cc(F)cc(c23)N[C@@H]1c1ccc(F)cc1 + COc1cc2c(cc1O)CCNC21CSC2c3c(OC(C)=O)c(C)c4c(c3C(COC1=O)N1C(O)C3Cc5cc(C)c(OC)c(O)c5C(C21)N3C)OCO4 | 1520 nM | 259 nM | 68.9 nM | < 9.49 nM | < 9.49 nM | 58.3% | 59.1% | 52.7% | 46% | 67% | 49.9% | 45.3% | 46% | 47% | 49% | 43% | 41.9% | 40.9% | 44.4% | 38% | viability, T/C [1]: 64.4%; viability, T/C [2]: 75.2%; viability, T/C [7]: 68.9%; viability, T/C [8]: 86.8%; viability, T/C [13]: 53.1%; viability, T/C [14]: 53.6%; viability, T/C [19]: 51.6%; viability, T/C [20]: 41.6%; viability, T/C [24]: 29.9%; viability, T/C [25]: 13.7%; viability, T/C [26]: 15.3%; viability, T/C [27]: 9.43%; viability, T/C [28]: 9.63%; viability, T/C [29]: 6.89%; viability, T/C [30]: 2.68% |
| O=C(c1cc(Cc2n[nH]c(=O)c3ccccc23)ccc1F)N1CCN(C(=O)C2CC2)CC1 + COc1cc2c(cc1O)CCNC21CSC2c3c(OC(C)=O)c(C)c4c(c3C(COC1=O)N1C(O)C3Cc5cc(C)c(OC)c(O)c5C(C21)N3C)OCO4 | 5280 nM | 1620 nM | 153 nM | < 94.9 nM | < 94.9 nM | 91.7% | 79.2% | 57.2% | 72.7% | 50.1% | 57.1% | 70% | 39.7% | 53.5% | 44.5% | 40.3% | 34.5% | 26.8% | 29.3% | 25.9% | viability, T/C (second compound 30 pM, first compound 9.49 µM): 38.3%; viability, T/C (second compound 30 pM, first compound 30 µM): 25.2%; viability, T/C (second compound 94.9 pM, first compound 9.49 µM): 29.7%; viability, T/C (second compound 94.9 pM, first compound 30 µM): 25.1%; viability, T/C (second compound 0.0003 µM, first compound 9.49 µM): 28.6%; viability, T/C (second compound 0.0003 µM, first compound 30 µM): 25.3%; viability, T/C [24]: 24.8%; viability, T/C (second compound 0.000949 µM, first compound 9.49 µM): 21.5%; viability, T/C (second compound 0.000949 µM, first compound 30 µM): 14.8%; viability, T/C [27]: 7.65%; viability, T/C [28]: 7.5%; viability, T/C [29]: 5.51%; viability, T/C [30]: 6.23%; viability, T/C (second compound 0.003 µM, first compound 9.49 µM): 3.48%; viability, T/C (second compound 0.003 µM, first compound 30 µM): 2.13% |
